This note sets out measurements from patent US20250034520A1, “INCREASING DEVELOPMENTAL POTENTIAL OF HUMAN PREIMPLANTATION EMBRYOS BY REDUCING GENETIC INSTABILITY, ANEUPLOIDIES AND CHROMOSOMAL MOSAICISM” (THE TRUSTEES OF COLUMBIA UNIVERSITY IN THE CITY OF NEW YORK, priority 2022, published 2025).

What all share (assay type): cell-based
The test system of one assay is mouse embryos. The assay is described as follows: mouse preimplantation development and embryo quality. As to the method:
(§1) Embryos, mouse and human, were cultured in Global Total (Life-Global) for the duration of the experiments and with added compounds as outlined below. Incubation in RNA polymerase inhibitors triptolide (1 mM) or alpha amanitin (20 mg/ml) was performed from the 2PN stage (day1) to day3 of human development. Incubation in aphidicolin was performed at 2 mM. […] Mirin was used at a concentration of 50 mM. Olaparib was used to inhibit PARP at a concentration of 10 mM. All experiments were conducted during incubation at 37° C. with 5% CO2 and 19-20% O2. Chemical stock solutions were prepared in DMSO at concentrations at least 1000× higher than the final concentration.
(§2) Mouse oocytes were activated at 1-6 hours post retrieval using 2 mM ionomycin (Sigma Aldrich) in Global Total medium for 5 minutes at 37° C. followed by culture in 10 mM puromycin and 5 mg/ml cytochalasin B for 3 hours, then cytochalasinB only for 2 hours and 10 minutes to prevent second polar body extrusion.
(§3) Following the experimental exposures, mouse and human embryos were fixed in 2% paraformaldehyde (PFA) and 0.25% Triton X-100 in PBS for 10 minutes at room temperature, serially washed in phosphate-buffered solution (PBS) at room temperature, then stored in PBS at 4° C. until staining and imaging. Embryos were placed in 10-20 ml droplets of primary antibody solution within plastic tissue culture dishes covered with mineral oil for 1 hour at room temperature, serially washed (×2) in PBS containing 0.01% Triton X-100 to prevent embryos sticking to oil, then transferred to 10-20 ml secondary antibody solution and Hoechst (dilution 1:500) for 30 minutes. Embryos were then serially washed (×2) and placed in 5 ml droplets of PBS with 0.5% serum albumin in uncoated glass bottom dishes (Mattek) covered with embryo culture oil for imaging. The following primary antibodies were used across experiments as described above: Oct-4, γH2AX, RPA32, RPA32 S4/S8, RPA32 S33, 53BP1, RAD51, Centromere, and phospho-CHK1. Phospho-specific antibodies were quality controlled through ATR dependence of foci formation in mouse zygotes, and for γH2AX also in human zygotes. […] The appropriate secondary antibodies conjugated with Alexa Fluor 488, Alexa Fluor 555, CF 568, or Alexa Fluor 647 were diluted at 1:500-1:1000. Ethynyl deoxyuridine (EdU) labeling of zygotes and embryos was performed using the labeling kit (Thermo Fisher Scientific) as described by the manufacturer. 10 mM EdU was added to culture medium for 1 h at the indicated time points, and cells were harvested and fixed thereafter. 5-ethynyl uridine (EU) labeling was performed by incubating day3 cleavage stage embryos for 4 hours in Global total containing 0.2 mM EU.
(§4) Embryos were imaged with confocal microscopy using a Zeiss LSM (LSM 710) at a magnification of 63× and the Zeiss Zen software. Images were obtained using 488-, 543- and 633-nm lasers and bright-field microscopy. The number of confocal sections was adjusted to capture the entire nucleus or the entire embryo according to the experimental design as described above. Cell numbers and staining foci numbers were counted manually. Nuclei were identified by the presence of Hoechst33342. Foci were identified if at least 3× greater intensity than nuclear average, spherical in appearance, and overlapping with Hoechst33342 staining. Inner cell masses were identified by the presence of Oct4 within a blastocyst embryo. Active DNA replication was identified by the presence of EdU. DNA damage was identified by the detection of γH2AX and RPA foci within the nucleus. Mechanisms of DNA repair were identified through the detection of RPA S4/S8, RPA S33, Rad51 and 53BP1 foci within the nucleus.

Assay [1] has as its system human zygotes and parthenotes. The assay is described as follows: timing of mitotic entry in human zygotes and parthenotes. To be noted: for mitotic entry: human parthenotes. As to the method:
as §1
(§5) Artificial activation of human MII oocytes was performed using two pulses of 2.7 kV/cm at 50 ms using ECFG21 (Nepagene) in fusion buffer consisting of 0.25 M d-sorbitol buffer containing 0.1 mM calcium acetate, 0.5 mM magnesium acetate, 0.5 mM HEPES, and 1 mg ml^−1 fatty-acid-free BSA as previously described (Tachibana et al., 2013). Thereafter, oocytes were incubated for 3.5-4 h in 10 mg/ml puromycin, followed by a wash step and following culture in Global total.

Assay [2] relates to mouse parthenogenetic zygotes. As to the kind of experiment: anaphase figures at the first mitosis, mouse parthenogenetic zygotes. As to the method:
as §1, §2, §3

The next assay relates to human zygotes. As to the kind of experiment: DNA damage foci immunostaining in human zygotes/parthenotes. As to the method:
as §1, §5
as §3, with “phospho-CHK1.” for “phospho-CHK1. Phospho-specific antibodies were quality controlled through ATR dependence of foci formation in mouse zygotes, and for γH2AX also in human zygotes.”
as §4

The mark [3] stands for this setting: human, aphidicolin incubation in G2 phase.

“Also recorded” adds a separate entry of the source. Where only a bound is given, the exact number is not on record here.

As for `C[C@@]1(CO)[C@H](O)CC[C@@]2(C)[C@H]1CC[C@H]1C[C@@H]3C[C@@]12CC[C@]3(O)CO` [aphidicolin], in the assay with mouse embryos (48 h post activation, aphidicolin in G2), the micronucleation result is given as “increased”. In addition, the “cleaved embryos developed to the blastocyst stage, range” value in the assay on mouse embryos (aphidicolin in G2 phase) is 25%-87%. Moreover, the “cleaved embryos developed to the blastocyst stage” value in the assay with mouse embryos (aphidicolin in G2 phase, controls 92%) worked out at 72%. Also, in the assay with mouse embryos (day 5, aphidicolin in G2), the “ICM cells marked by Pou5f1” value is reported as “fewer” and the “total cell number of blastocysts” value is “reduced”. Further, the mitotic entry entry in assay [1] (incubation at 14 h) was “prevented mitotic entry”. Also, the mitotic entry result in assay [1] (incubation at 15.5 h, compared with controls) was “allowed mitotic entry with a delay”. In addition, in assay [1] (human, incubation at 18 h), the mitotic entry timing entry is given as “no effects; also recorded: did not delay”. Besides, in assay [2] (aphidicolin in G2 phase), the “embryos with abnormal anaphase, range per experiment” value is given as 7%-30%. Moreover, the “embryos with abnormal anaphase” value in assay [2] (aphidicolin in G2 phase, controls 191/191 normal) was determined as 17.4%. For the same compound, in assay [2] (applied only after pronuclear envelope breakdown), the “effect on chromosome segregation at anaphase” value is reported as “inconsequential”. In addition, the “frequency of abnormal anaphase figures” value in assay [2] (both ATR kinase inhibitor and aphidicolin in G2 phase) turned out to be 63%. In addition, the “time to formation of foci for γH2AX and RPA32” value with human zygotes (aphidicolin from 15.5 h post activation) is at most 6 h. In the assay with human zygotes (human, aphidicolin incubation), the “RPA32-positive foci per haploid nucleus, average” value came to 1.8 per haploid nucleus and the “γH2AX foci positive for RPA32” value is “Approximately 10%”. Moreover, in the assay with human zygotes (setting [3]), the “mean γH2AX foci” value is 21 and the “γH2AX foci, range” value is 0-51.
